Assay results taken from patent US7960410B2, “Method for treating insulin resistance, abdominal obesity, hypertension, hyperinsulinemia, and elevated blood lipids with a cortisol inhibitor” (Cortendo AB, priority 1994, dated 2011).
Where “and” joins values, the source holds several entries; their conditions need not be identical. Identical values can stand only once. Entries after “also recorded” stand apart in the source; their conditions may differ.

System: women with diabetes mellitus type II
Assay: Clinical tests of women with diabetes mellitus type II treated with ketoconazole
Assay type: in vivo, human
Conditions: for Serum-ASAT / Serum-ALAT / GIR (glucose infusion rate during euglycemic glucose clamp), indicating insulin sensitivity / Fasting serum total cholesterol / Diastolic blood pressure measured after 5 min. in supine position, 2 measurements averaged / Systolic blood pressure measured after 5 min. in supine position, 2 measurements averaged / Fasting blood glucose: after treatment
Experimental: We have investigated a group of people with diabetes mellitus type II.
Group 1 consists of 3 patients (mean age: 46 years) treated with ketoconazole for 2 weeks, administered orally 22:00 in the evening in the dose of 400 mg.
Group 2 consists of 5 patients (mean age: 51 years) treated with ketoconazole for 6 weeks, administered orally 22:00 in the evening in the dose of 400 mg. Results are expressed as mean values within groups.

[1] = diabetes mellitus type II patients, after vs before treatment

CC(=O)N1CCN(c2ccc(OCC3COC(Cn4ccnc4)(c4ccc(Cl)cc4Cl)O3)cc2)CC1 (stereo not shown) [ketoconazole]
Serum-ASAT (Group 1: 400 mg orally 22:00 for 2 weeks, group mean (before: 0.36)): 0.33 μkat/L | Serum-ALAT (Group 1: 400 mg orally 22:00 for 2 weeks, group mean (before: 0.61)): 0.52 μkat/L | GIR (glucose infusion rate during euglycemic glucose clamp), indicating insulin sensitivity (Group 1: 400 mg orally 22:00 for 2 weeks, group mean (before: 0.9)): 1.85 mg glucose per minute divided by lean body mass | Fasting serum total cholesterol (Group 1: 400 mg orally 22:00 for 2 weeks, group mean (before: 5.80)): 5.67 mmol/L | Diastolic blood pressure measured after 5 min. in supine position, 2 measurements averaged (Group 1: 400 mg orally 22:00 for 2 weeks, group mean (before: 70)): 70 mm Hg | Systolic blood pressure measured after 5 min. in supine position, 2 measurements averaged (Group 1: 400 mg orally 22:00 for 2 weeks, group mean (before: 140)): 135 mm Hg | Fasting blood glucose (Group 1: 3 patients, 400 mg orally 22:00 for 2 weeks, group mean (before: 10.20)): 8.77 mmol/L | Serum-ASAT (Group 2: 400 mg orally 22:00 for 6 weeks, group mean (before: 0.26)): 0.25 μkat/L | Serum-ALAT (Group 2: 400 mg orally 22:00 for 6 weeks, group mean (before: 0.40)): 0.37 μkat/L | GIR (glucose infusion rate during euglycemic glucose clamp), indicating insulin sensitivity (Group 2: 400 mg orally 22:00 for 6 weeks, group mean (before: 2.97)): 4.32 mg glucose per minute divided by lean body mass | Fasting serum total cholesterol (Group 2: 400 mg orally 22:00 for 6 weeks, group mean (before: 4.80)): 4.10 mmol/L | Diastolic blood pressure measured after 5 min. in supine position, 2 measurements averaged (Group 2: 400 mg orally 22:00 for 6 weeks, group mean (before: 75)): 72 mm Hg | Systolic blood pressure measured after 5 min. in supine position, 2 measurements averaged (Group 2: 400 mg orally 22:00 for 6 weeks, group mean (before: 125)): 123 mm Hg | Fasting blood glucose (Group 2: 5 patients, 400 mg orally 22:00 for 6 weeks, group mean (before: 7.20)): 7.10 mmol/L | Effect on blood pressure (in words) [1]: decreasing blood pressure values | Effect on insulin sensitivity / insulin resistance (in words), euglycemic glucose clamp [1]: a reduction of the insulin insensitivity (resistance); also recorded: improved insulin sensitivity; also recorded: a remarkable improvement of insulin sensitivity | Effect on plasma cholesterol levels (in words) [1]: Reduced cholesterol levels in the plasma | Effect on blood glucose (in words) (diabetes mellitus type II patients, after vs before treatment for 2 and 6 weeks, fasting or 2 hours after i.v. glucose infusion): lower blood glucose after treatment compared to before treatment; also recorded: a decrease in blood glucose | Blood glucose 2 hours after start of an i.v. glucose infusion (human, in vivo): 7.90 mmol/L and 5.76 mmol/L
